Results as given in patent US11242350B2, “Spirocyclic ROR-gamma modulators” (Escalier Biosciences B.V., priority 2018, dated 2022).

These molecules were tested against RORγt (Homo sapiens (Human), UniProt P51449) (assay: Gal4 ligand binding assay (RORγt Gal fusion luciferase reporter assay in HEK293T cells)). Conditions: RORγt inverse agonists in RORγt Gal fusion assay.
Format: cell-based
Method: The N-terminal DNA binding domains (DBD) of the native RORγ and RORγt receptors have been substituted with that of the yeast GAL4-DBD and stably transfected in HEK293T cells that also stably express luciferase under the regulation by upstream activation sequence of yeast Gal4. These cells constitutively express high level RORγ activity due to binding of endogenous co-factors. Both agonist and inverse agonist activity can be detected. The assay was performed according to kit manufacturer's instructions as follows. 10 mM compound stocks were diluted serially 1:3 with DMSO and further diluted with provided media to generate 10 titration points from 60 μM to 3 nM. These treatment conditions were added to the plates as 2× media in 100 μL volume. Each plate includes a positive control with 10 titration points as well as 6 negative control wells with vehicle only, with final DMSO concentration of 0.2%. RORγ reporter cells were rapidly thawed and added to the plates in 100 μL volume. The plates were incubated for 24 h in a 37° C. humidified 5% CO2 incubator. Media was removed before the addition of room temperature luciferous detection substrate. After 5 minute incubation, relative light units (RLUs) were quantified using a plate reading luminometer. Data was normalized to […] with only 0.2%0DMSO. Before establishing internal controls, ursolic acid was used as control.

Sequence of RORγt (P51449 269-508): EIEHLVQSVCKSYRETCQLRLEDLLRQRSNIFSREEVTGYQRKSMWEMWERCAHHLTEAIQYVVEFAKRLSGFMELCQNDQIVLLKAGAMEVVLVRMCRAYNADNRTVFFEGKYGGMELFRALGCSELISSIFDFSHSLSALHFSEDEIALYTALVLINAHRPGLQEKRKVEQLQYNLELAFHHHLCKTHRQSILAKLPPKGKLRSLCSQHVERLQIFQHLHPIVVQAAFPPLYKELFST

| IC50 | SMILES |
| --- | --- |
| > 0.25 µM | CCc1cc(CN2CC3(C2)CN(C(C)=O)C3)ccc1-c1ccc(C(O)(C(F)(F)F)C(F)(F)F)cc1 [Example 48, 1-(6-((2-ethyl-4′-(1,1,1,3,3,3-hexafluoro-2-hydroxypropan-2-yl)-[1,1′-biphenyl]-4-yl)methyl)-2,6-diazaspiro[3.3]heptan-2-yl)ethan-1-one] |
| > 0.25 µM | CCc1cc(CN2CC3(CC[S+]([O-])C3)C2)ccc1-c1ccc(C(O)(C(F)(F)F)C(F)(F)F)cc1 (centres unmarked) [Example 25, 2-((2-ethyl-4′-(1,1,1,3,3,3-hexafluoro-2-hydroxypropan-2-yl)-[1,1′-biphenyl]-4-yl)methyl)-6-thia-2-azaspiro[3.4]octane 6-oxide] |
| > 0.25 µM | CCc1cc(CN2CC(CN(C)S(C)(=O)=O)C2)ccc1-c1ccc(C(O)(C(F)(F)F)C(F)(F)F)cc1 [Example 29, N-((1-((2-ethyl-4′-(1,1,1,3,3,3-hexafluoro-2-hydroxypropan-2-yl)-[1,1′-biphenyl]-4-yl)methyl)azetidin-3-yl)methyl)-N-methylmethanesulfonamide] |
| < 0.05 µM | CC(C)c1cc(CN2CC3(C2)CN(S(C)(=O)=O)C3)ccc1-c1ccc(C(O)(C(F)(F)F)C(F)(F)F)cc1 [Example 43, 1,1,1,3,3,3-hexafluoro-2-(2′-isopropyl-4′-((6-(methylsulfonyl)-2,6-diazaspiro[3.3]heptan-2-yl)methyl)-[1,1′-biphenyl]-4-yl)propan-2-ol] |
| 0.05 to 0.25 µM | CCc1cc(CN2CCC3(CCNC3=O)C2)ccc1-c1ccc(C(O)(C(F)(F)F)C(F)(F)F)cc1 (centres unmarked) [Example 53, 7-((2-ethyl-4′-(1,1,1,3,3,3-hexafluoro-2-hydroxypropan-2-yl)-[1,1′-biphenyl]-4-yl)methyl)-2,7-diazaspiro[4.4]nonan-1-one] |
| < 0.05 µM | CCc1cc(C(O)(C(F)(F)F)C(F)(F)F)ccc1-c1c(F)cc(CN2CC3(C2)CN(S(C)(=O)=O)C3)c(F)c1C1CC1 [Example 90, 2-(2′-cyclopropyl-2-ethyl-3′,6′-difluoro-4′-((6-(methylsulfonyl)-2,6-diazaspiro[3.3]heptan-2-yl)methyl)-[1,1′-biphenyl]-4-yl)-1,1,1,3,3,3-hexafluoropropan-2-ol] |
| < 0.05 µM | CCc1c(F)c(CN2CC3(C2)CN(S(C)(=O)=O)C3)cc(F)c1-c1ccc(C(O)(C(F)(F)F)C(F)(F)F)cc1C [Example 68, 2-(2′-ethyl-3′,6′-difluoro-2-methyl-4′-((6-(methylsulfonyl)-2,6-diazaspiro[3.3]heptan-2-yl)methyl)-[1,1′-biphenyl]-4-yl)-1,1,1,3,3,3-hexafluoropropan-2-ol] |
| < 0.05 µM | CCc1cc(CN2CC3(C2)CN(S(C)(=O)=O)C3)ccc1-c1ccc(C(O)(C(F)(F)F)C(F)(F)F)cc1C#N [Example 65, 2′-ethyl-4-(1,1,1,3,3,3-hexafluoro-2-hydroxypropan-2-yl)-4′-((6-(methylsulfonyl)-2,6-diazaspiro[3.3]heptan-2-yl)methyl)-[1,1′-biphenyl]-2-carbonitrile] |
| 0.05 to 0.25 µM | CCc1cc(CN2CC3(C2)CN(S(=O)(=O)C2CC2)C3)ccc1-c1ccc(C(O)(C(F)(F)F)C(F)(F)F)cc1 [Example 41, 2-(4′-((6-(cyclopropylsulfonyl)-2,6-diazaspiro[3.3]heptan-2-yl)methyl)-2′-ethyl-[1,1′-biphenyl]-4-yl)-1,1,1,3,3,3-hexafluoropropan-2-ol] |
| < 0.05 µM | CC(C)c1cc(CN2CC3(C2)CN(S(C)(=O)=O)C3)c(F)cc1-c1ccc(C(O)(C(F)(F)F)C(F)(F)F)cc1 [Example 78, 1,1,1,3,3,3-hexafluoro-2-(5′-fluoro-2′-isopropyl-4′-((6-(methylsulfonyl)-2,6-diazaspiro[3.3]heptan-2-yl)methyl)-[1,1′-biphenyl]-4-yl)propan-2-ol] |
| < 0.05 µM | CCc1cc(CN2CCC3(CCN(S(C)(=O)=O)C3)C2)ccc1-c1ccc(C(O)(C(F)(F)F)C(F)(F)F)cc1 (centres unmarked) [Example 31, 2-(2′-ethyl-4′-((7-(methylsulfonyl)-2,7-diazaspiro[4.4]nonan-2-yl)methyl)-[1,1′-biphenyl]-4-yl)-1,1,1,3,3,3-hexafluoropropan-2-ol] |
| < 0.05 µM | CCc1cc(C(O)(C(F)(F)F)C(F)(F)F)ccc1-c1c(F)cc(CN2CC3(C2)CN(S(C)(=O)=O)C3)c(F)c1CC [Example 71, 2-(2,2′-diethyl-3′,6′-difluoro-4′-((6-(methylsulfonyl)-2,6-diazaspiro[3.3]heptan-2-yl)methyl)-[1,1′-biphenyl]-4-yl)-1,1,1,3,3,3-hexafluoropropan-2-ol] |
| < 0.05 µM | CS(=O)(=O)N1CC2(CN(Cc3cc(F)c(-c4ccc(C(O)(C(F)(F)F)C(F)(F)F)cc4Cl)c(C4CC4)c3F)C2)C1 [Example 92, 2-(2-chloro-2′-cyclopropyl-3′,6′-difluoro-4′-((6-(methylsulfonyl)-2,6-diazaspiro[3.3]heptan-2-yl)methyl)-[1,1′-biphenyl]-4-yl)-1,1,1,3,3,3-hexafluoropropan-2-ol] |
| 0.05 to 0.25 µM | CCc1cc(CN2CC3(C2)CN(S(C)(=O)=O)C3)cnc1-c1ccc(C(O)(C(F)(F)F)C(F)(F)F)cc1C [Example 62, 2-(4-(3-ethyl-5-((6-(methylsulfonyl)-2,6-diazaspiro[3.3]heptan-2-yl)methyl)pyridin-2-yl)-3-methylphenyl)-1,1,1,3,3,3-hexafluoropropan-2-ol] |
| < 0.05 µM | CCc1c(-c2ccc(C(O)(C(F)(F)F)C(F)(F)F)cc2)ccc(CN2CC3(C2)CN(S(C)(=O)=O)C3)c1F [Example 37, 2-(2′-ethyl-3′-fluoro-4′-((6-(methylsulfonyl)-2,6-diazaspiro[3.3]heptan-2-yl)methyl)-[1,1′-biphenyl]-4-yl)-1,1,1,3,3,3-hexafluoropropan-2-ol] |
| > 0.25 µM | Cc1cc(C(O)(C(F)(F)F)C(F)(F)F)ccc1-c1cccc(N2CC3(C2)CN(S(C)(=O)=O)C3)n1 [Example 67, 1,1,1,3,3,3-hexafluoro-2-(3-methyl-4-(6-(6-(methylsulfonyl)-2,6-diazaspiro[3.3]heptan-2-yl)pyridin-2-yl)phenyl)propan-2-ol] |
| < 0.05 µM | CCc1cc(CN2CCC3(CCS(=O)(=O)C3)C2)ccc1-c1ccc(C(O)(C(F)(F)F)C(F)(F)F)cc1 (centres unmarked) [Example 58, 7-((2-ethyl-4′-(1,1,1,3,3,3-hexafluoro-2-hydroxypropan-2-yl)-[1,1′-biphenyl]-4-yl)methyl)-2-thia-7-azaspiro[4.4]nonane 2,2-dioxide] |
| 0.05 to 0.25 µM | CCc1cc(CN2CC3(CCN(S(C)(=O)=O)C3)C2)ccc1-c1ccc(C(O)(C(F)(F)F)C(F)(F)F)cc1 [Example 6, 2-(2′-ethyl-4′-((6-(methylsulfonyl)-2,6-diazaspiro[3.4]octan-2-yl)methyl)-[1,1′-biphenyl]-4-yl)-1,1,1,3,3,3-hexafluoropropan-2-ol] |
| < 0.05 µM | CS(=O)(=O)N1CC2(CN(Cc3cc(F)c(-c4ccc(C(O)(C(F)(F)F)C(F)(F)F)cc4)c(C4CC4)c3F)C2)C1 [Example 88, 2-(2′-cyclopropyl-3′,6′-difluoro-4′-((6-(methylsulfonyl)-2,6-diazaspiro[3.3]heptan-2-yl)methyl)-[1,1′-biphenyl]-4-yl)-1,1,1,3,3,3-hexafluoropropan-2-ol] |
| < 0.05 µM | CCC(C)c1cc(CN2CC3(C2)CN(S(C)(=O)=O)C3)ccc1-c1ccc(C(O)(C(F)(F)F)C(F)(F)F)cc1 (centres unmarked) [Example 13, 2-(2′-(sec-butyl)-4′-((6-(methylsulfonyl)-2,6-diazaspiro[3.3]heptan-2-yl)methyl)-[1,1′-biphenyl]-4-yl)-1,1,1,3,3,3-hexafluoropropan-2-ol] |
